Drawing on patent US10023593B2, “ALK kinase inhibitor, and preparation method and uses thereof” (BEIJING PEARL BIOTECHNOLOGY LIMITED LIABILITY COMPANY, priority 2014, dated 2018), this text covers IC50 for 33 compounds.

The subject of the first test is NCI-H2228 cell line. Briefly: CellTiter-Glo cell proliferation inhibition on NCI-H2228 cell line. In kind it is cell-based. To be noted: Homo sapiens, 96 h, NCI-H2228 cells, 5000 cells/well, 4 days drug treatment. Here is the method: 3. Cell Proliferation Inhibitory Activities of the Compounds of the Present Invention on NCI-H2228 Cell Line
? experimental method ? CellTiter-Glo® Luminescent Cell Viability Assay kit from Promega company was used to detect cell proliferation inhibitory activities of the compounds on NCI-H2228 cell line.
? instrument ? Envision 2104 plate reader from PerKinElmer company; Vi-Cell XR cell counter from Beckman Counter company; MCO-18AIC CO2 incubator from SANYO company.
? experiment material ? CellTiter-Glo® Luminescent Cell Viability Assay Kit (Promega company, catalog No. G7573); NCI-H2228 cell line (ATCC, catalog No. CRL-5935); RPMI-1640 medium (HyClone company, catalog No. SH30809.01B); fetal bovine serum (FBS) (Gibco company, catalog No. 10099-141); trypsin (Trypsin) (Gibco company, catalog No. 25200-072); PBS (HyClone company, catalog No. SH30256.01B); 96 wells cell culture plate (Corning company, catalog No. 3610); DMSO (AMRESCO company, catalog No. 0231); 96 wells plates (for diluting compounds) (CITOTEST company, catalog No. Ref36020096D);
? experimental condition ? NCI-H2228 cells in exponential growth phase were collected and treated with trypsin (Trypsin), and viable cells were counted by Vi-Cell XR cell counter. Cell suspension was adjusted to 62500 cells/ml with culture medium (RPMI-1640+10% FBS). 80 μl cell suspension was added into each well of 96 wells cell culture plate so that the final cell number of NCI-H2228 cells was 5000 cells/well. The cells were cultivated in an incubator with an atmosphere of 37° C., 5% CO2 and 95% humidity for 2 hours and then each well was added with 20 μl compounds in RPMI-1640 medium solution (the final concentration of DMSO was 0.5%). 4 days after drug treatment, each well was added with 50 μl CellTiter-Glo solution which was previously thawed and equilibrated to room temperature, and mixed for 2 minutes with microplate shaker. After placing at room temperature for 10 minutes, luminescence value was measured by PerkinElmer Envision 2104 plate reader and the data was analyzed.
? tested samples ? Compounds of the examples.
? data analysis ? Luminescence value of DMSO solvent control (Vvehicle control, which is the mean luminescence value from DMSO solvent control group)
Tested luminescence value (Vsample, which is the luminescence value from given concentration of compounds group) Inhibition rate (%)=(1−Vsample/Vvehicle control)×100
? data processing ? IC50 of compounds was calculated by using XLfit program in Excel.
As to `Cc1cc(Nc2ncc(Cl)c(Nc3cn(C)nc3S(=O)(=O)C(C)C)n2)c(OC2CC2)cc1C1CCN(C2CCN(C)CC2)CC1` [Final product 158, 5-chloro-N^2-(2-cyclopropoxy-5-methyl-4-(1-(1-methyl-piperidin-4-yl)piperidin-4-yl)phenyl)-N^4-(3-(isopropylsulfonyl)-1-methyl-1H-pyrazol-4-yl)pyrimidin-2,4-diamine], the 50% inhibitory concentration (IC50) (usually the point on the concentration scale where inhibition reaches its midpoint) was found to be 170 nM.

Still in this test, the particulars now being: Homo sapiens, NCI-H2228, 96 h, NCI-H2228 cells, 5000 cells/well, 4 days drug treatment.
As to `Cc1cc(Nc2ncc(Cl)c(Nc3cn(C)nc3S(=O)(=O)C(C)C)n2)c(OC2CC2)cc1C1CCCN(CCO)C1` (stereo not drawn) [Final product 139], the half-inhibitory concentration (IC50) was 90 nM.
`Cc1cc(Nc2ncc(Cl)c(Nc3cn(C)nc3S(=O)(=O)CC(C)C)n2)c(OC2CC2)cc1C1CCCN(CCO)C1` (stereo not drawn) [Final product 140]: the 50% inhibitory concentration (IC50) turned out to be 105 nM.
Compound `Cc1cc(Nc2ncc(Cl)c(Nc3cn(C)nc3S(=O)(=O)C(C)C)n2)c(OC(C)C)cc1C1CCCN(CCO)C1` (stereo not drawn) [Final product 141] showed a half-inhibitory concentration (IC50) of 147 nM.
`COCCN1CCC(c2cc(OC(C)C)c(Nc3ncc(Cl)c(Nc4cn(C)nc4S(=O)(=O)C(C)C)n3)cc2C)CC1` [Final product 142, 5-chloro-N^2-(2-isopropoxy-4-(1-(2-methoxyethyl)piperidin-4-yl)-5-methyl-phenyl)-N^4-(3-(isopropylsulfonyl)-1-methyl-1H-pyrazol-4)-pyrimidin-2,4-diamine] showed an IC50 of 140 nM.
In turn, `CCOc1cc(C2CCN(CCOC)CC2)c(C)cc1Nc1ncc(Cl)c(Nc2cn(C)nc2S(=O)(=O)C(C)C)n1` [Final product 143, 5-chloro-N^2-(2-ethoxy-4-(1-(2-methoxyethyl)piperidin-4-yl)-5-methyl-phenyl)-N^4-(3-(isopropylsulfonyl)-1-methyl-1H-pyrazol-4)-pyrimidin-2,4-diamine] showed a half-maximal inhibitory concentration (IC50) of 32 nM.
`COCCN1CCC(c2cc(OC3CCC3)c(Nc3ncc(Cl)c(Nc4cn(C)nc4S(=O)(=O)C(C)C)n3)cc2C)CC1` [Final product 144, 5-chloro-N^2-(2-cyclobutyloxy-4-(1-(2-methoxyethyl)piperidin-4-yl)-5-methyl-phenyl)-N^4-(3-(isopropylsulfonyl)-1-methyl-1H-pyrazol-4)-pyrimidin-2,4-diamine] displayed an IC50 of 48 nM.
Consider `Cc1cc(Nc2ncc(Cl)c(Nc3cn(C)nc3S(=O)(=O)C(C)C)n2)c(OC2CC2)cc1C1CCN(CCF)CC1` [Final product 145, 5-chloro-N^2-[2-cyclopropoxy-4-(1-(2-fluoroethyl)piperidin-4-yl)-5-methylphenyl]-N^4-[1-methyl-3-(isopropylsulfonyl)-1H-pyrazol-4-yl]-pyrimidin-2,4-diamine], for which the IC50 was 54 nM.
Still for that read-out and setting: for `Cc1cc(Nc2ncc(Cl)c(Nc3cn(C)nc3S(=O)(=O)C(C)C)n2)c(OC2CC2)cc1C1CCN(C(C)(C)CO)CC1` [Final product 147, 2-(4-(4-(5-chloro-4-(3-(isopropylsulfonyl)-1-methyl-1H-pyrazol-4-amino)pyrimidin-2-amino)-5-cyclopropoxy-2-methylphenyl)piperidin-1-yl)-2-methyl-1-propanol] the value was 41 nM; for `Cc1cc(Nc2ncc(Cl)c(Nc3cn(C)nc3S(=O)(=O)C(C)C)n2)c(OC2CC2)cc1C1CCCN(C(C)(C)CO)C1` (stereo not drawn) [Final product 148], 44 nM; for `Cc1cc(Nc2ncc(Cl)c(Nc3cn(C)nc3S(=O)(=O)CC(C)C)n2)c(OC2CC2)cc1C1CCN(C(C)(C)CO)CC1` [Final product 149], 57 nM.
In the case of `CCOc1cc(C2CCN(C(C)(C)CO)CC2)c(C)cc1Nc1ncc(Cl)c(Nc2cn(C)nc2S(=O)(=O)C(C)C)n1` [Final product 150], the IC50 turned out to be 43 nM.
`CCOc1cc(C2CCCN(C(C)(C)CO)C2)c(C)cc1Nc1ncc(Cl)c(Nc2cn(C)nc2S(=O)(=O)C(C)C)n1` (stereo not drawn) [Final product 151]: the half-inhibitory concentration (IC50) is 70 nM.
The compound `Cc1cc(Nc2ncc(Cl)c(Nc3cn(C)nc3S(=O)(=O)C(C)C)n2)c(OC2CCC2)cc1C1CCN(C(C)(C)CO)CC1` [Final product 153] returned an IC50 of 60 nM.
Compound `Cc1cc(Nc2ncc(Cl)c(Nc3cn(C)nc3S(=O)(=O)C(C)C)n2)c(OC2CCC2)cc1C1CCCN(C(C)(C)CO)C1` (stereo not drawn) [Final product 154] yielded an IC50 of 128 nM.
`Cc1cc(Nc2ncc(Cl)c(Nc3cn(C)nc3S(=O)(=O)C(C)C)n2)c(OC2CC2)cc1C1CCN(CC(=O)N(C)C)CC1` [Final product 155, 2-(4-(4-(5-chloro-4-(3-(isopropoxysulfonyl)-1-methyl-1H-pyrazol-4-yl-amino)pyrimidin-2-yl-amine)-5-cyclopropoxy-2-methylphenyl)piperidin-1-yl)-N,N-dimethylacetamide] yielded a half-maximal inhibitory concentration (IC50) of 75 nM. This IC50 is about 1.7-fold lower than that of the compound before.
On the same count and under the same terms, next, `Cc1cc(Nc2ncc(Cl)c(Nc3cn(C)nc3S(=O)(=O)CC(C)C)n2)c(OC2CC2)cc1[C@H]1CC[C@@H](N(C)C)CC1` [Final product 175, 5-chloro-N^2-(2-cyclopropoxy4-(4-(dimethylamino)cyclohexyl)-5-methylphenyl)-N^4-(3-(isobutylsulfonyl)-1-methyl-1H-pyrazol-4-yl) pyrimidin-2,4-diamine]: 256 nM; `Cc1cc(Nc2ncc(Cl)c(Nc3cn(C)nc3S(=O)(=O)CC(C)C)n2)c(OC2CC2)cc1[C@H]1CC[C@H](N(C)C)CC1` [Final product 176, 5-chloro-N^2-(2-cyclopropoxy4-(4-(dimethylamino)cyclohexyl)-5-methylphenyl)-N^4-(3-(isobutylsulfonyl)-1-methyl-1H-pyrazol-4-yl) pyrimidin-2,4-diamine]: 91 nM.
In the case of `CCN(CC)[C@H]1CC[C@@H](c2cc(OC3CC3)c(Nc3ncc(Cl)c(Nc4cn(C)nc4S(=O)(=O)CC(C)C)n3)cc2C)CC1` [Final product 177], the midpoint of inhibition, the IC50, lay at 73 nM.
Take `Cc1cc(Nc2ncc(Cl)c(Nc3cn(C)nc3S(=O)(=O)CC(C)C)n2)c(OC2CC2)cc1[C@H]1CC[C@@H](NC2CC2)CC1` [Final product 179]: the IC50 was determined as 137 nM. This IC50 is about 1.9-fold higher than that of the compound before.
For `Cc1cc(Nc2ncc(Cl)c(Nc3cn(C)nc3S(=O)(=O)CC(C)C)n2)c(OC2CC2)cc1[C@H]1CC[C@@H](NC(C)C)CC1` [Final product 181], 106 nM corresponded to half-maximal inhibition (IC50). This IC50 and that of the compound before are within 1.5-fold of each other.
`Cc1cc(Nc2ncc(Cl)c(Nc3cn(C)nc3S(=O)(=O)C(C)C)n2)c(OC(C)C)cc1C1CCC(N(C)C)CC1` (stereo not drawn) [Final product 183] returned a half-inhibitory concentration (IC50) of 172 nM.
Still for that read-out and setting: for `CCN(CC)[C@H]1CC[C@H](c2cc(OC(C)C)c(Nc3ncc(Cl)c(Nc4cn(C)nc4S(=O)(=O)C(C)C)n3)cc2C)CC1` [Final product 184] the value was 188 nM; for `Cc1cc(Nc2ncc(Cl)c(Nc3cn(C)nc3S(=O)(=O)C(C)C)n2)c(OC(C)C)cc1[C@H]1CC[C@@H](NC2CC2)CC1` [Final product 185], 296 nM; for `Cc1cc(Nc2ncc(Cl)c(Nc3cn(C)nc3S(=O)(=O)C(C)C)n2)c(OC(C)C)cc1[C@H]1CC[C@H](NC2CC2)CC1` [Final product 186], 253 nM.
In turn, `Cc1cc(Nc2ncc(Cl)c(Nc3cn(C)nc3S(=O)(=O)C(C)C)n2)c(OC(C)C)cc1[C@H]1CC[C@@H](NC(C)C)CC1` [Final product 187] had an IC50 of 111 nM. Against the preceding compound, the IC50 is about 2.3-fold lower.
`Cc1cc(Nc2ncc(Cl)c(Nc3cn(C)nc3S(=O)(=O)C(C)C)n2)c(OC2CC2)cc1[C@H]1CC[C@@H](N(C)C(C)C)CC1` [Final product 193]: the IC50 was 116 nM.
With `Cc1cc(Nc2ncc(Cl)c(Nc3cn(C)nc3S(=O)(=O)C(C)C)n2)c(OC2CC2)cc1[C@H]1CC[C@H](N(C)C(C)C)CC1` [Final product 194], the IC50 worked out at 78 nM.
Still for that read-out and setting: next, `Cc1cc(Nc2ncc(Cl)c(Nc3cn(C)nc3S(=O)(=O)C(C)C)n2)c(OC2CC2)cc1[C@H]1CC[C@@H](NC2CC2)CC1` [Final product 195]: 116 nM.
Compound `Cc1cc(Nc2ncc(Cl)c(Nc3cn(C)nc3S(=O)(=O)C(C)C)n2)c(OC2CC2)cc1[C@H]1CC[C@@H](NC(C)C)CC1` [Final product 197] showed a half-inhibitory concentration (IC50) of 72 nM.
On the same count and under the same terms, for `Cc1cc(Nc2ncc(Cl)c(Nc3cn(C)nc3S(=O)(=O)C(C)C)n2)c(OC2CC2)cc1[C@H]1CC[C@@H](NCCN(C)C)CC1` [Final product 199] the value was 225 nM; for `Cc1cc(Nc2ncc(Cl)c(Nc3cn(C)nc3S(=O)(=O)C(C)C)n2)c(OC2CC2)cc1[C@H]1CC[C@H](NCCN(C)C)CC1` [Final product 200], 210 nM; for `Cc1cc(Nc2ncc(Cl)c(Nc3cn(C)nc3S(=O)(=O)C(C)C)n2)c(OC2CC2)cc1C1CCC(N2CCCC2)CC1` (stereo not drawn) [Final product 201], 149 nM.
